In PubChem BioAssay AID330 (DTP/NCI, 2004):
Values joined by “and” are separate entries in the source; they are usually repeats but may differ in a detail not shown here. Equal entries are not always repeated. Toxic doses and inconclusive results are not listed. Bridge positions count the residues as written; N and C are the ends. Peptide text beside a SMILES is read from it. I, II: the chains in the order shown.

System: P388 leukemia ip, CD2F1 mice, survival T/C
Experiment: NCI In Vivo Anticancer Drug Screen. Data for tumor model P388 Leukemia (intraperitoneal) in CD2F1 (CDF1) mice
Details: endpoint: median survival time, higher = longer survival
In short: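 Mice carrying the transplanted tumor received test compound or vehicle. Survival was recorded in each group, and the value is the treated-group measurement divided by that of the vehicle-treated control group.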

[1] = dose: 100.0 mg/kg/injection, schedule: Q01DX001 (ip), vehicle: saline with Tween-80
[2] = dose: 60.0 mg/kg/injection, schedule: Q01DX005 (ip), vehicle: saline with Tween-80
[3] = dose: 120.0 mg/kg/injection, schedule: Q01DX005 (ip), vehicle: saline with Tween-80
[4] = dose: 240.0 mg/kg/injection, schedule: Q01DX005 (ip), vehicle: saline with Tween-80
[5] = dose: 50.0 mg/kg/injection, schedule: Q01DX005 (ip), vehicle: Klucel (hydroxypropylcellulose) (HPC)
[6] = dose: 50.0 mg/kg/injection, schedule: Q01DX005 (ip), vehicle: saline with Tween-80
[7] = dose: 100.0 mg/kg/injection, schedule: Q01DX005 (ip), vehicle: saline with Tween-80
[8] = dose: 200.0 mg/kg/injection, schedule: Q01DX005 (ip), vehicle: saline with Tween-80
[9] = dose: 12.5 mg/kg/injection, schedule: Q01DX005 (ip), vehicle: saline with Tween-80
[10] = dose: 25.0 mg/kg/injection, schedule: Q01DX005 (ip), vehicle: saline with Tween-80

## COc1cc(OC)c2c(=O)c3ccc([N+](=O)[O-])cc3n(C)c2c1
[1]
  T/C: 100 % of control
dose: 200.0 mg/kg/injection, schedule: Q01DX001 (ip), vehicle: saline with Tween-80
  T/C: 100 % of control

## C/C(CC(N)=O)=C1\C(=O)NN(c2ccccc2)C1=O
[2]
  T/C: 108 % of control
[3]
  T/C: 110 % of control
[4]
  T/C: 114 % of control

## O=c1c[n+](-c2ccccc2)[nH]o1
dose: 100.0 mg/kg/injection, schedule: Q04DX003 (ip), vehicle: Klucel (hydroxypropylcellulose) (HPC)
  T/C: 109 % of control
dose: 200.0 mg/kg/injection, schedule: Q04DX003 (ip), vehicle: Klucel (hydroxypropylcellulose) (HPC)
  T/C: 100 % of control
dose: 400.0 mg/kg/injection, schedule: Q04DX003 (ip), vehicle: Klucel (hydroxypropylcellulose) (HPC)
  T/C: 104 % of control

## NP(=O)(Oc1ccccc1)Oc1ccccc1
dose: 6.23 mg/kg/injection, schedule: Q01DX009 (ip), vehicle: saline with Tween-80
  T/C: 95 % of control
dose: 12.5 mg/kg/injection, schedule: Q01DX009 (ip), vehicle: saline with Tween-80
  T/C: 100 % of control
dose: 25.0 mg/kg/injection, schedule: Q01DX009 (ip), vehicle: saline with Tween-80
  T/C: 95 % of control

## Fc1ccc2[nH]cc(C3CCCN4CCCCC34)c2c1 (stereo not drawn)
dose: 12.5 mg/kg/injection, schedule: Q01DX001 (ip), vehicle: saline with Tween-80
  T/C: 95 % of control
dose: 25.0 mg/kg/injection, schedule: Q01DX001 (ip), vehicle: saline with Tween-80
  T/C: 101 % of control
dose: 50.0 mg/kg/injection, schedule: Q01DX001 (ip), vehicle: saline with Tween-80
  T/C: 102 % of control
[1]
  T/C: 101 % of control

## CN1CCCc2cccc(c2)CCC1
dose: 12.5 mg/kg/injection, schedule: Q01DX005 (ip), vehicle: Klucel (hydroxypropylcellulose) (HPC)
  T/C: 98 % of control
dose: 25.0 mg/kg/injection, schedule: Q01DX005 (ip), vehicle: Klucel (hydroxypropylcellulose) (HPC)
  T/C: 100 % of control
[5]
  T/C: 99 % of control and 95 % of control

## COc1ccc(C(=O)Nc2c(O)ccc3ccccc23)cc1OC
[6]
  T/C: 101 % of control
[7]
  T/C: 97 % of control
[8]
  T/C: 100 % of control

## C=C1C(=O)OC2C3OC(C)(CCC(O)C3COC(C)=O)CC(OC(=O)/C(=C/C)COC(C)=O)C12 (stereo not drawn)
dose: 0.75 mg/kg/injection, schedule: Q01DX009 (ip), vehicle: saline
  T/C: 116 % of control and 118 % of control
dose: 0.78 mg/kg/injection, schedule: Q01DX009 (ip), vehicle: Klucel (hydroxypropylcellulose) (HPC)
  T/C: 99 % of control
dose: 1.5 mg/kg/injection, schedule: Q01DX009 (ip), vehicle: saline
  T/C: 100 % of control and 111 % of control
dose: 1.56 mg/kg/injection, schedule: Q01DX009 (ip), vehicle: Klucel (hydroxypropylcellulose) (HPC)
  T/C: 113 % of control
dose: 3.0 mg/kg/injection, schedule: Q01DX009 (ip), vehicle: saline
  T/C: 101 % of control and 106 % of control
dose: 3.12 mg/kg/injection, schedule: Q01DX009 (ip), vehicle: Klucel (hydroxypropylcellulose) (HPC)
  T/C: 105 % of control
dose: 6.25 mg/kg/injection, schedule: Q01DX009 (ip), vehicle: Klucel (hydroxypropylcellulose) (HPC)
  T/C: 97 % of control

## COc1cc(C(O)Cc2ccccc2)cc(OC)c1OC (stereo not drawn)
dose: 31.25 mg/kg/injection, schedule: Q01DX009 (ip), vehicle: saline + Tween-80 + alcohol
  T/C: 98 % of control
dose: 62.5 mg/kg/injection, schedule: Q01DX009 (ip), vehicle: saline + Tween-80 + alcohol
  T/C: 109 % of control
dose: 125.0 mg/kg/injection, schedule: Q01DX009 (ip), vehicle: saline + Tween-80 + alcohol
  T/C: 91 % of control
dose: 250.0 mg/kg/injection, schedule: Q01DX009 (ip), vehicle: saline + Tween-80 + alcohol
  T/C: 89 % of control

## CC[N+](C)(CC)c1ccccc1
dose: 25.0 mg/kg/injection, schedule: Q04DX002 (ip), vehicle: saline
  T/C: 103 % of control
dose: 50.0 mg/kg/injection, schedule: Q04DX002 (ip), vehicle: saline
  T/C: 104 % of control

## CC(C)(C)C1CCC(P(C)(C)=S)CC1 (stereo not drawn)
dose: 12.5 mg/kg/injection, schedule: Q01DX009 (ip), vehicle: Klucel (hydroxypropylcellulose) (HPC)
  T/C: 99 % of control
dose: 25.0 mg/kg/injection, schedule: Q01DX009 (ip), vehicle: Klucel (hydroxypropylcellulose) (HPC)
  T/C: 114 % of control
dose: 50.0 mg/kg/injection, schedule: Q01DX009 (ip), vehicle: Klucel (hydroxypropylcellulose) (HPC)
  T/C: 94 % of control
dose: 200.0 mg/kg/injection, schedule: Q01DX009 (ip), vehicle: Klucel (hydroxypropylcellulose) (HPC)
  T/C: 97 % of control

## COc1cc(C(=O)Nc2ccc(NC3=NCCN3)cc2)cc(C(=O)Nc2ccc(NC3=NCCN3)cc2)c1
dose: 6.25 mg/kg/injection, schedule: Q01DX005 (ip), vehicle: saline with Tween-80
  T/C: 102 % of control
[9]
  T/C: 106 % of control
[10]
  T/C: 115 % of control

## c1ccc2c(c1)ccc1cccnc12
[6]
  T/C: 93 % of control
[7]
  T/C: 93 % of control
[8]
  T/C: 102 % of control

## O=C1NC2(CCCCC2)C(=O)N1CCCN(CCCl)CCCl
dose: 1.5 mg/kg/injection, schedule: Q01DX005 (ip), vehicle: saline
  T/C: 121 % of control
dose: 6.0 mg/kg/injection, schedule: Q01DX005 (ip), vehicle: saline
  T/C: 153 % of control and 156 % of control
dose: 12.0 mg/kg/injection, schedule: Q01DX005 (ip), vehicle: saline
  T/C: 178 % of control and 200 % of control and 208 % of control
dose: 24.0 mg/kg/injection, schedule: Q01DX005 (ip), vehicle: saline
  T/C: 162 % of control and 210 % of control

## C#CCN1C(=O)N(CC#C)C(=O)C(CC#C)(C(CC=C)c2ccccc2)C1=O (stereo not drawn)
[2]
  T/C: 100 % of control
[3]
  T/C: 100 % of control
[4]
  T/C: 96 % of control

## CN(C=O)c1ccc(Cl)cc1
dose: 100.0 mg/kg/injection, schedule: Q04DX002 (ip), vehicle: saline
  T/C: 100 % of control
dose: 200.0 mg/kg/injection, schedule: Q04DX002 (ip), vehicle: saline
  T/C: 97 % of control
dose: 400.0 mg/kg/injection, schedule: Q04DX002 (ip), vehicle: saline
  T/C: 100 % of control

## Clc1ccc(C[n+]2ccccc2)cc1Cl
dose: 5.0 mg/kg/injection, schedule: Q04DX003 (ip), vehicle: saline
  T/C: 120 % of control
dose: 10.0 mg/kg/injection, schedule: Q04DX003 (ip), vehicle: saline
  T/C: 110 % of control
dose: 20.0 mg/kg/injection, schedule: Q04DX003 (ip), vehicle: saline
  T/C: 110 % of control

## O=C(Nc1nncs1)c1ccncc1
dose: 50.0 mg/kg/injection, schedule: Q04DX002 (ip), vehicle: saline with Tween-80
  T/C: 104 % of control
dose: 100.0 mg/kg/injection, schedule: Q04DX002 (ip), vehicle: saline with Tween-80
  T/C: 112 % of control
dose: 200.0 mg/kg/injection, schedule: Q04DX002 (ip), vehicle: saline with Tween-80
  T/C: 157 % of control
dose: 400.0 mg/kg/injection, schedule: Q04DX002 (ip), vehicle: saline with Tween-80
  T/C: 153 % of control and 164 % of control

## CC(C)CC(NC(=O)C(N)CSSCC(N)C(=O)NC(CC(C)C)C(=O)O)C(=O)O (stereo not drawn) (I: H-Cys-Leu-OH / II: H-Cys-Leu-OH; disulfide I:1-II:1; configuration not given here)
[5]
  T/C: 106 % of control
dose: 100.0 mg/kg/injection, schedule: Q01DX005 (ip), vehicle: Klucel (hydroxypropylcellulose) (HPC)
  T/C: 113 % of control
dose: 200.0 mg/kg/injection, schedule: Q01DX005 (ip), vehicle: Klucel (hydroxypropylcellulose) (HPC)
  T/C: 92 % of control

## C=C(C)C12OC3(c4ccccc4)OC1C1C4OC4(CO)C(O)C4(O)C(=O)C(C)=CC4C1(O3)C(C)C2OC(=O)c1ccccc1 (stereo not drawn)
dose: 0.1 mg/kg/injection, schedule: Q01DX009 (ip), vehicle: saline
  T/C: 91 % of control
dose: 0.2 mg/kg/injection, schedule: Q01DX009 (ip), vehicle: saline
  T/C: 100 % of control
dose: 0.4 mg/kg/injection, schedule: Q01DX009 (ip), vehicle: saline
  T/C: 90 % of control
dose: 0.8 mg/kg/injection, schedule: Q01DX009 (ip), vehicle: saline
  T/C: 96 % of control

## O=[N+]([O-])C(c1ccccc1)C(c1ccccc1)[N+](=O)[O-] (stereo not drawn)
[9]
  T/C: 98 % of control
[10]
  T/C: 101 % of control
[6]
  T/C: 109 % of control and 112 % of control and 119 % of control
[7]
  T/C: 109 % of control and 110 % of control

## CC/C(=N\NS(=O)(=O)c1ccc(C)cc1)c1ccc(C)cc1
dose: 100.0 mg/kg/injection, schedule: Q04DX003 (ip), vehicle: saline
  T/C: 100 % of control
dose: 200.0 mg/kg/injection, schedule: Q04DX003 (ip), vehicle: saline
  T/C: 98 % of control
dose: 400.0 mg/kg/injection, schedule: Q04DX003 (ip), vehicle: saline
  T/C: 98 % of control

## Cc1ccc(Nc2ncnc3c2c(=O)n(C)c(=O)n3C)cc1
dose: 30.0 mg/kg/injection, schedule: Q01DX005 (ip), vehicle: saline with Tween-80
  T/C: 88 % of control
[2]
  T/C: 90 % of control
[3]
  T/C: 90 % of control
